From paper PMC7129073 (Clinical Microbiology and Infection, 2015)
In brackets after ≈: the same amount, converted by molar mass.

Assays:
[1] = system: Pseudomonas aeruginosa (PSA); assay: Vitek 2 susceptibility, urine isolates of children; type: cell-based; conditions: both departments
[2] = system: viridans group streptococci (VGS); assay: MIC; type: cell-based
nontyphoidal Salmonella = assay: Agar dilution, isolates from chickens 1998–2004; type: cell-based, Salmonella spp.
S. pneumoniae [3] = assay: E-test MIC, children with URTI, Brazil; type: cell-based, Streptococcus pneumoniae
Nocardia spp. = assay: E-test on Mueller Hinton agar, 81 clinical isolates; type: cell-based; conditions: for MIC50 / MIC90: Nocardia
S. pneumoniae [4] = assay: PROTEKT Italy, NCCLS microdilution; type: cell-based, Streptococcus pneumoniae
S. -pneumoniae = assay: Sensitivity of CAP pathogens with/without antibiotic pretreatment; type: cell-based, Streptococcus pneumoniae
S. pyogenes = assay: as above; type: cell-based, Streptococcus pyogenes; conditions: Abs. 4
H. influenzae = assay: as above; type: cell-based, Haemophilus influenzae
Other Haemophilus sp. = assay: as above; type: cell-based
E. coli = assay: as above; type: cell-based, Escherichia coli
Kl. pneumoniae = assay: as above; type: cell-based, Klebsiella pneumoniae
Other Enterobacteriacae = assay: as above; type: cell-based, Enterobacteriaceae
P. aeruginosa = assay: as above; type: cell-based, Pseudomonas aeruginosa; conditions: Abs. 3
[5] = system: Other non-fermenting bacteria; assay: as above; type: cell-based
Enterococcus sp = assay: as above; type: cell-based
S. aureus = assay: as above; type: cell-based, Staphylococcus aureus
Staph. coaq (−) = assay: as above; type: cell-based, coagulase-negative Staphylococcus
[6] = system: Total pathogens in community acquired pneumonia; assay: as above; type: cell-based
[7] = system: pathogens in community acquired pneumonia of different severity; assay: Sensitivity of CAP pathogens by Fine severity group; type: cell-based
S. pneumoniae [8] = assay: Broth microdilution; type: cell-based, Streptococcus pneumoniae; conditions: 275 isolates
C. albicans = assay: Antifungal susceptibility; type: cell-based, Candida albicans
C. parapsilosis = assay: Antifungal susceptibility; type: cell-based, Candida parapsilosis
[9] = system: Pseudomonas putida clinical isolates; assay: Agar dilution MIC; type: cell-based
S. pneumoniae (SPN) = assay: NCCLS broth microdilution, fluoroquinolones 1999–2004; type: cell-based, Streptococcus pneumoniae; conditions: Streptococcus pneumoniae, read-out: MIC90 during the six years, 1999–2004
Acinetobacter = assay: Disk diffusion; type: cell-based; conditions: 37 isolates selected as resistant to beta-lactams
MSSA = assay: Agar dilution MIC; type: cell-based, Staphylococcus aureus; conditions: for MIC50 / MIC90: Staphylococcus aureus, MSSA; for MIC range: n = 200
MRSA = assay: Agar dilution MIC; type: cell-based, Staphylococcus aureus; conditions: for MIC50 / MIC90: Staphylococcus aureus, MRSA; for MIC range: n = 50
[10] = Linezolid in paediatric oncohaematological patients, retrospective; type: in vivo, human
enterococci = assay: Disk diffusion and E-test, faecal isolates of cancer patients; type: cell-based, Enterococcus; conditions: 38 strains
[11] = system: glycopeptide intermediate Staphylococcus species (GISS); assay: VITEK II, screening plate and E test, blood isolates; type: cell-based, coagulase-negative Staphylococci
[12] = system: viridans group streptococci (VgS) and Streptococcus bovis; assay: Broth microdilution and disk diffusion; type: cell-based; conditions: nine species
E. faecalis = assay: E-test susceptibility; type: cell-based, Enterococcus faecalis
E. faecium = assay: E-test susceptibility; type: cell-based, Enterococcus faecium
[13] = system: methicillin susceptible Staphylococcus aureus; assay: NCCLS agar dilution MIC; type: cell-based
[14] = system: methicillin resistant Staphylococcus aureus; assay: NCCLS agar dilution MIC; type: cell-based; conditions: n = 53

SMILES: NCC[C@H](O)C(=O)N[C@@H]1C[C@H](N)[C@@H](O[C@H]2O[C@H](CN)[C@@H](O)[C@H](O)[C@H]2O)[C@H](O)[C@H]1O[C@H]1O[C@H](CO)[C@@H](O)[C@H](N)[C@H]1O [AM, amikacin]
- Susceptible isolates [1]: 74-100%
- MIC50 [2]: 0.12 µg/mL (≈ 0.205 µM)
- MIC90 [2]: 1 µg/mL (≈ 1.71 µM)
- resistance (nontyphoidal Salmonella; Belgian collection (caecal samples; Belgium, France, Netherlands)): 46%
- resistance (nontyphoidal Salmonella; Germany (carcass meat)): 16%

SMILES: CC1(C)S[C@@H]2[C@H](NC(=O)[C@H](N)c3ccc(O)cc3)C(=O)N2[C@H]1C(=O)O [amoxicillin]
- resistant (R) (S. pneumoniae [3]; 137 isolates): 0.7%
- MIC (S. pneumoniae [3]; Streptococcus pneumoniae, read-out: MIC of the one resistant isolate): 3 µg/mL
- MIC50 (Nocardia spp.): 12 µg/mL (≈ 32.8 µM)
- MIC90 (Nocardia spp.): 32 µg/mL (≈ 87.6 µM)
- susceptible (S. pneumoniae [4]; year 1: 2002): 93.8%
- susceptible (S. pneumoniae [4]; year 2: 2003): 96.6%
- % of sensitive strains (S. -pneumoniae; after antibiotic pretreatment, Abs. 3): 66.7%
- % of sensitive strains (S. -pneumoniae; without antibiotic pretreatment, Abs. 13): 92.3%
- % of sensitive strains (S. pyogenes; after pretreatment): 75.0%
- % of sensitive strains (S. pyogenes; without pretreatment): 100.0%
- % of sensitive strains (H. influenzae; after pretreatment, Abs. 10): 80.0%
- % of sensitive strains (H. influenzae; without pretreatment, Abs. 26): 88.5%
- % of sensitive strains (Other Haemophilus sp.; after pretreatment, Abs. 11): 90.9%
- % of sensitive strains (Other Haemophilus sp.; without pretreatment, Abs. 21): 90.5%
- % of sensitive strains (E. coli; after pretreatment, Abs. 1): 100.0%
- % of sensitive strains (E. coli; without pretreatment, Abs. 5): 60.0%
- % of sensitive strains (Kl. pneumoniae; after pretreatment, Abs. 5): 0.0%
- % of sensitive strains (Kl. pneumoniae; without pretreatment, Abs. 4): 0.0%
- % of sensitive strains (Other Enterobacteriacae; after pretreatment, Abs. 5): 20.0%
- % of sensitive strains (Other Enterobacteriacae; without pretreatment, Abs. 2): 50.0%
- % of sensitive strains (P. aeruginosa; after pretreatment): 0.0%
- % of sensitive strains (P. aeruginosa; without pretreatment): 0.0%
- % of sensitive strains ([5]; after pretreatment, Abs. 0): 0.0%
- % of sensitive strains ([5]; without pretreatment, Abs. 1): 0.0%
- % of sensitive strains (Enterococcus sp; after pretreatment, Abs. 0): 0.0%
- % of sensitive strains (Enterococcus sp; without pretreatment, Abs. 1): 100.0%
- % of sensitive strains (S. aureus; after pretreatment, Abs. 4): 0.0%
- % of sensitive strains (S. aureus; without pretreatment, Abs. 11): 9.1%
- % of sensitive strains (Staph. coaq (−); after pretreatment, Abs. 2): 50.0%
- % of sensitive strains (Staph. coaq (−); without pretreatment, Abs. 4): 50.0%
- % of sensitive strains ([6]; after pretreatment, Abs. 48): 54.2%
- % of sensitive strains ([6]; without pretreatment, Abs. 95): 69.5%
- sensitivity, total strains ([7]; higher severity group (Fine scores >70)): 55,8%
- sensitivity, total strains ([7]; lower severity group (Fine scores <70)): 64.8%
- Susceptibility (S. pneumoniae [8]): 99.3%

SMILES: C[C@@H]1[C@H](O)[C@@H](C)/C=C/C=C/C=C/C=C/C=C/C=C/C=C/[C@H](O[C@@H]2O[C@H](C)[C@@H](O)[C@H](N)[C@@H]2O)C[C@@H]2O[C@](O)(C[C@@H](O)C[C@@H](O)[C@H](O)CC[C@@H](O)C[C@@H](O)CC(=O)O[C@H]1C)C[C@H](O)[C@H]2C(=O)O [amphotericin B]
- susceptibility of all tested strains (C. albicans): susceptible
- resistant (C. parapsilosis): 10%

SMILES: Clc1ccc(COC(Cn2ccnc2)c2ccc(Cl)cc2Cl)cc1 (stereo not drawn) [econazole]
- intermediate susceptibility (C. albicans): 2%
- resistant and intermediate susceptibility (C. parapsilosis): 63%

SMILES: Nc1nc(=O)[nH]cc1F [flucitozine]
- susceptibility of all tested strains (C. albicans): susceptible

SMILES: COc1c(N2CCNC(C)C2)c(F)cc2c(=O)c(C(=O)O)cn(C3CC3)c12 (stereo not drawn) [gatifloxacin]
- MIC [9]: > 128 µg/mL
- MIC50 [2]: 0.25 µg/mL (≈ 0.666 µM)
- MIC90 [2]: 0.25 µg/mL (≈ 0.666 µM)
- MIC90 (S. pneumoniae (SPN)): 0.5 µg/mL (≈ 1.33 µM)
- resistant isolates (Acinetobacter): 83.8%
- MIC50 (MSSA): < 0.0625 µg/mL
- MIC90 (MSSA): < 0.125 µg/mL
- MIC range (MSSA): 0.0625 to 4 µg/mL (≈ 0.166 to 10.7 µM)
- MIC50 (MRSA): < 4 µg/mL
- MIC90 (MRSA): < 4 µg/mL
- MIC range (MRSA): 4 µg/mL (≈ 10.7 µM)

SMILES: CC(=O)NC[C@H]1CN(c2ccc(N3CCOCC3)c(F)c2)C(=O)O1 [linezolid]
- clinical response ([10]; 10 mg/kg bid iv, combined therapy, 38/50 courses): 76%
- courses discontinued due to exacerbation of cytopenia ([10]; 1 course): 2%
- eradication of Gram(+) organisms in mixed fungal and bacterial infection ([10]; 4/50 courses): 8%
- complete resolution after ineffective vancomycin therapy ([10]; 8/16): 50%
- eradication, documented Gram(+) infection ([10]; 13/13): 100%
- complete resolution of the symptoms ([10]; 34/50 courses): 68%
- MIC50 [2]: 1 µg/mL (≈ 2.96 µM)
- MIC90 [2]: 1 µg/mL (≈ 2.96 µM)
- susceptibility of all isolates ([2]; NCCLS): All isolates were susceptible
- sensitivity of all isolated strains (enterococci): All the isolated strains were sensitive
- MIC50 (Nocardia spp.): 1 µg/mL (≈ 2.96 µM)
- MIC90 (Nocardia spp.): 2 µg/mL (≈ 5.93 µM)
- MIC range (Nocardia spp.; read after 48 and 72 h): 0.047 to 3 µg/mL
- sensitivity of all GISS strains [11]: all GISS strains demonstrated sensitivity
- MIC50 (MSSA): < 2 µg/mL
- MIC90 (MSSA): < 2 µg/mL
- MIC range (MSSA): 2 µg/mL (≈ 5.93 µM)
- MIC50 (MRSA): < 2 µg/mL
- MIC90 (MRSA): < 2 µg/mL
- MIC range (MRSA): 2 µg/mL (≈ 5.93 µM)
- % S, range between species [12]: 99.1 – 100.0%
- Susceptibility (E. faecalis; ICU, SRGA breakpoints, tigecycline tentative ≤2 μg/ml): 98%
- Susceptibility (E. faecalis; non-ICU): 99%
- Susceptibility (E. faecium; ICU): 98%
- Susceptibility (E. faecium; non-ICU): 99%
- MIC50 ([13]; Staphylococcus aureus): 2 µg/mL (≈ 5.93 µM)
- MIC90 ([13]; Staphylococcus aureus): 2 µg/mL (≈ 5.93 µM)
- MIC range ([13]; n = 41): 0.5 to 2 µg/mL
- MIC range [14]: 1 to 32 µg/mL

SMILES: Clc1ccc(COC(Cn2ccnc2)c2ccc(Cl)cc2Cl)c(Cl)c1 (stereo not drawn) [miconazole]
- susceptibility of all tested strains (C. albicans): susceptible
- resistant and intermediate susceptibility (C. parapsilosis): 50%
